Data taken from patent EP4663198A1, “COMPOSITION CONTAINING CYCLIC PEPTIDE COMPOUND AND SURFACTANT” (CHUGAI SEIYAKU KABUSHIKI KAISHA, priority 2023, dated 2024).

Details: Caco-2, pH 6.5

Papp A→B: 0.0525 ×10⁻⁶ cm/s
Structure (SMILES): CCO[C@@H]1C[C@H]2C(=O)NC3(CCCC3)C(=O)N[C@@H](C3CCCC3)C(=O)N(C)[C@H](C(=O)N(C)C)CC(=O)N(C)[C@@H](CC(C)C)C(=O)N[C@@H]([C@@H](C)CC)C(=O)N(C)CC(=O)N(C)[C@H]3C/C=C\CCN(C3=O)[C@@H](Cc3ccc(C(F)(F)F)cc3)C(=O)N(C)CC(=O)N[C@@H](CCc3cc(F)c(C(F)(F)F)c(F)c3)C(=O)N2C1 [CP01, (2S,8S,12R,14S,20S,23S,27S,30S,36S,38Z)-20-cyclopentyl-8-[2-[3,5-difluoro-4-(trifluoromethyl)phenyl]ethyl]-12-ethoxy-27-isobutyl-N,N,4,22,26,32,35-heptamethyl-30-[(1S)-1-methylpropyl]-3,6,9,15,18,21,25,28,31,34,42-undecaoxo-2-[(4-(trifluoromethyl)phenyl]methyl]spiro[1,4,7,10,16,19,22,26,29,32,35-undecazatricyclo[34.5.1.0^10,14]dotetraconta-38-en-17,1'-cyclopentane]-23-carboxamide]
